Data: US20200255489A1, “Novel Senolytic Peptides” (priority 2017, published 2020)
Where a SMILES comes first, the peptide text is derived from it. [ ]: non-standard residue; d: D form.

How the values were obtained:
[1] = Acute Systemic Toxicity Test (ISO 10993-11); format: in vivo, mice (BALB/c); conditions: BALB/c
Method: Senolytic Peptides were evaluated for toxicity according to Acute Sytemic Toxicity Test (ISO 10993-11). This study was performed in strict accordance with the protocol approved by the TUBITAK-MAM Animal Ethics Committee. All the mice used in this study were of a BALB/c background at 8-12 weeks of age. All mice were kept in group housing until the start of the experiment after which they were placed in separate cages (5 mice per cage). The Senolytic Peptide (SEQ ID NO: 11) is administered intravenously using a mice model (BALB/c) at doses of 1, 10, 50 and 100 mg/kg and vehicle alone is also administered using single injections (n=5, per group). Control and Senolytic Peptide (SEQ ID NO: 11) injected mice were sacrificed 24 hours later for pathological examination. […] Blood samples were subsequently collected for determination and analysis of hematological and biochemical parameters. Plasma alanine aminotransferase (ALT), aspartate aminotransferase (AST), alkaline phosphatase (ALP) activities and blood urea, glucose, triglyceride levels were determined, inter alia, full hematological parameters.

[2] = system: senescent and non-senescent IMR90 cells; assay: XTT viability assay on Doxorubicin induced senescent and non-senescent IMR90 fibroblasts; format: cell-based, human; conditions: senescence by 100 NM Doxorubicin, total doses 0 to 100 pM on 3 consecutive days, XTT after 7 days
Method: IMR-90 cells (ATCC #CCL-186, a diploid primary human fibroblast adherent cell line derived from fetal lung tissue) were treated with 100 NM Doxorubicin twice every other day for senescence induction. […] Later these cells were used for experiments comparing them to their non-Doxorubicin (non-senescent) treated counterparts. Senescent and non-senescent IMR90 fibroblasts were plated for XTT viability assays. 7000 senescent (obtained as described above) and 2000 non-senescent IMR90 fibroblasts were plated in 96-well plates incubated. The cells were treated with mock (PBS) or the Senolytic Peptide(s) at total doses ranging from 0 to 100 pM. The mock and peptide treatments were carried out for 3 consecutive days (24, 48 and 72 hours) after plating. After treatment period, the cells were incubated for 7 days until XTT-based viability was analyzed according to the manufacturer's instructions. […]
(§1) WI-38 cells (ATCC #CCL-75, a diploid primary human fibroblast adherent cell line derived from fetal lung tissue) and IMR90 cells (ATCC #CCL-186, a diploid primary human fibroblast adherent cell line derived from fetal lung tissue) were treated with a chemotherapy agent, 100 NM Doxorubicin twice every other day to induce senescence. […] After treatment period, the cells were incubated for 7 days until XTT-based viability was analyzed according to the manufacturer's instructions. […]

[3] = system: senescent and non-senescent WI-38 cells; assay: XTT viability assay on Doxorubicin induced senescent and non-senescent WI-38 fibroblasts; format: cell-based, human; conditions: senescence by 100 NM Doxorubicin, total doses 0 to 100 pM on 3 consecutive days, XTT after 7 days
Method: WI-38 cells (ATCC #CCL-75, a diploid primary human fibroblast adherent cell line derived from fetal lung tissue) were treated with a chemotherapy agent, 100 NM Doxorubicin twice every other day to induce senescence. […] Later these cells were used for experiments comparing them to their non-Doxorubicin (non-senescent) treated counterparts. Senescent and non-senescent WI-38 fibroblasts were plated for XTT viability assays. 7000 senescent (obtained as described above) and 2000 non-senescent WI-38 fibroblasts were plated in 96-well plates incubated. The cells were treated with mock (PBS) or the Senolytic Peptide (SEQ ID NO: 11) at total doses ranging from 0 to 100 pM. The mock and peptide treatments were carried out for 3 consecutive days (24, 48 and 72 hours) after plating. After treatment period, the cells were incubated for 7 days until XTT-based viability was analyzed according to the manufacturer's instructions. […]
as §1

[4] = system: Doxorubicin induced renal senescence; assay: Doxorubicin induced chemotoxicity / renal senescence in mice; format: in vivo; conditions: male BALB/c mice, doxorubicin 8 mg/kg i.p. twice
Method: This study was performed in strict accordance with the protocol approved by the TUBITAK-MAM Animal Ethics Committee. All the mice used in this study were of a BALB/c background at 8-12 weeks of age. All mice were kept in group housing until the start of the experiment after which they were placed in separate cages (4 mice per cage). Only male mice were used throughout the study. Where feasible, littermates were used. All mice were randomly assigned to experimental group. Mice were fed ad libidum. Initial weights of the mice were recorded. Mice were divided into three groups (A-No Treatment, B-Doxorubicin Treatment+Mock Treatment, C-Doxorubicin Treatment+Senolytic Peptide Treatment). Doxorubicin induced chemotoxicity was used for the induction of renal senescence in mice. Mice in Group B and C were intraperitoneally administered with doxorubicin (8 mg/kg) twice (at 0 and 10th day). Weights of the mice were recorded three times a week. 24 days after 2nd Doxorubicin treatment, PBS (mock Treatment) was administered intravenously to Group B and Senolytic Peptide (SEQ ID NO: 12) (3×10 mg/kg) was administered to Group C in three days (every other day) (FIG. 17A). The mice health, activity and appearance were monitored and they were sacrificed 14 days later. Gross pathology and pathology of the mice analysed. Mice organs and tissues are flash-frozen in liquid nitrogen and embedded in OCT and kept at −80 C. 10 micron thick mid-sagittal cryo-sections of the kidney were taken and SA-B-Gal activity was assayed as in Example 1-3. Doxorubicin induced alopecia and caused weight loss in mice and both conditions are reversed upon the Senolytic Peptide (SEQ ID NO: 12) Treatment (FIG. 17B).

[5] = peptide 3x10 mg/kg every other day

| Compound | toxicity to the physical appearance of the mice ([1]; single intravenous injection 1, 10, 50 and 100 mg/kg, within 24 hours of injection) | toxicity by hematological parameters, AST, ALT, ALP levels and gross pathology ([1]; single intravenous injection, even at 100 mg/kg, 24 hours) | effect on viability of senescent versus non-senescent cells (XTT) [2] | effect on viability of senescent versus non-senescent cells (XTT) [3] | Doxorubicin induced alopecia [4, 5] | Doxorubicin induced weight loss [4, 5] | senescent cells in kidneys (SA-B-Gal activity of kidney sections) ([4]; peptide 3x10 mg/kg, sacrificed 14 days later) |
| --- | --- | --- | --- | --- | --- | --- | --- |
| CC(C)C[C@H](NC(=O)[C@@H](NC(=O)[C@H](CC(C)C)NC(=O)[C@H](CCCNC(=N)N)NC(=O)[C@H](CCCCN)NC(=O)[C@H](CCCNC(=N)N)NC(=O)[C@@H]1CCCN1C(=O)[C@H](C)NC(=O)[C@H](CCCNC(=N)N)NC(=O)[C@H](CCCNC(=N)N)NC(=O)[C@H](CCCNC(=N)N)NC(=O)[C@H](CCCNC(=N)N)NC(=O)[C@H](CCCNC(=N)N)NC(=O)[C@H](CCCNC(=N)N)NC(=O)[C@H](CCCNC(=N)N)NC(=O)[C@H](CCCNC(=N)N)NC(=O)[C@H](CCCNC(=N)N)NC(=O)[C@H](CCCNC(=N)N)NC(=O)[C@H](CCCNC(=N)N)NC(=O)[C@H](CCCNC(=N)N)NC(=O)[C@H](CCCNC(=N)N)NC(=O)[C@H](CCCNC(=N)N)NC(=O)CNC(=O)[C@H](Cc1c[nH]c2ccccc12)NC(=O)[C@H](C)NC(=O)[C@H](CCCNC(=N)N)NC(=O)[C@H](CCCNC(=N)N)NC(=O)[C@H](CCCNC(=N)N)NC(=O)[C@H](CCCNC(=N)N)NC(=O)CNC(=O)CNC(=O)[C@H](CCCCN)NC(=O)[C@H](CCCNC(=N)N)NC(=O)[C@@H]1CCCN1C(=O)[C@H](N)CCCNC(=N)N)[C@@H](C)O)C(=O)O [SEQ ID NO: 11, dRPRKGGRRRR AWGRRRRRRR RRRRRRRAPR KRLTL] (H-[dR]PRKGGRRRRAWGRRRRRRRRRRRRRRAPRKRLTL-OH) | No toxicity | no toxicity | – | – | – | – | – |
| PRKGGSRRRAWGNQRYARLIRQAIESAPEKRLTLA (PRKGGSRRRAWGNQRYARLIRQAIESAPEKRLTLA; Based on Homo sapiens sequence) [SEQ ID NO: 12] | – | – | selectively decreased the viability | selectively decreased the viability | reversed | reversed | cleared senescent cells in kidneys |
